# Square brackets hold non-standard residues; d marks the D form. Peptide text beside a SMILES is read from it. * marks the point of attachment. Sta = CC(C)C[C@H](N)[C@@H](O)CC(=O)O; Isovaleryl = CC(C)CC(=O)*
# Target: T1, Lsp from E. coli (Escherichia coli, UniProt P00804)
# T1 construct: The full-length Lsp clone from E. coli (residues 1-164); His6 with enterokinase cleavage site (pET19b) (N); made in house; host or cells: E. coli Lemo21 (DE3), pET19b vector
# Test: Lsp FRET activity assay, IC50 determination
# Type: biochemical
# Conditions: not given
# Description: […] […] 50 μM Lsp FRET substrate was subsequently added and the rate of substrate hydrolysis was measured by increase in fluorescence (excitation 355 nm, emission 495 nm) in 96-well plates on a PerkinElmer EnVision plate reader or Tecan Safire 2 microplate reader. Michaelis-Menten constants and […] were determined using GraphPad Prism software (GraphPad, Inc.).
# T1 sequence (P00804 whole entry, the tested form may be a part): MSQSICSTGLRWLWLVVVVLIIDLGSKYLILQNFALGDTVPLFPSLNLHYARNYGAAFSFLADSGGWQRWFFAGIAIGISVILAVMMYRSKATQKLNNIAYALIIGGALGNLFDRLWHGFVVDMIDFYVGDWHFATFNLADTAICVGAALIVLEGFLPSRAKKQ
Compound,effect on cleaved substrate fluorescence,inhibition of E. coli Lsp by known aspartic acid protease inhibitors,IC50 [µM],"potency against Lsp, in words (SAR)"
"CCC(CC)c1nnc(NC(=O)c2cc(OC)c(OC(C)C)cc2[N+](=O)[O-])s1 [1i, 4-isopropoxy-5-methoxy-2-nitro-N-(5-(pentan-3-yl)-1,3,4-thiadiazol-2-yl)benzamide]",no effect,–,–,–
"COCCCOc1cc(C[C@@H](C[C@H](N)[C@@H](O)C[C@H](C(=O)NCC(C)(C)C(N)=O)C(C)C)C(C)C)ccc1OC [aliskiren, reference compound]",–,no known aspartic acid protease inhibitors,–,–
"CC(C)CC(=O)N[C@H](C(=O)N[C@H](C(=O)N[C@@H](CC(C)C)[C@@H](O)CC(=O)N[C@@H](C)C(=O)N[C@@H](CC(C)C)[C@@H](O)CC(=O)O)C(C)C)C(C)C [pepstatin, reference compound] (Isovaleryl-VV[Sta]A[Sta]-OH)",–,no known aspartic acid protease inhibitors,–,–
CCC(CC)c1nnc(NC(=O)c2ccc(OS(=O)(=O)F)cc2[N+](=O)[O-])s1 [Sk056-45-1],–,–,46,–
CCC(CC)c1nnc(NC(=O)c2ccc(NCCS(=O)(=O)F)cc2[N+](=O)[O-])s1 [Sk056-45-3],–,–,19,–
"CC(C)[C@H](O)C(=O)N[C@@H](C)C(=O)N[C@@H]1C(=O)N(C)CCc2ccccc21 [semagacestat, reference compound]",–,no known aspartic acid protease inhibitors,–,–
"CC(C)(C)NC(=O)[C@@H]1C[C@@H]2CCCC[C@@H]2CN1C[C@@H](O)[C@H](Cc1ccccc1)NC(=O)[C@H](CC(N)=O)NC(=O)c1ccc2ccccc2n1 [saquinavir, reference compound]",–,no known aspartic acid protease inhibitors,–,–
"N-(5-buty-1,3,4-oxadiazol-2-yl)-4,5-dimethoxy-2-nitrobenzamide [1e]",–,–,–,inactive
"COC(=O)N[C@H](C(=O)N[C@@H](Cc1ccccc1)[C@@H](O)CN(Cc1ccc(-c2ccccn2)cc1)NC(=O)[C@@H](NC(=O)OC)C(C)(C)C)C(C)(C)C [atazaniavir, reference compound]",–,no known aspartic acid protease inhibitors,–,–
CCC(CC)c1nnc(NC(=O)c2ccc(OC)c(OC)c2)s1 [1b],–,–,–,ablated the potency
CCC(CC)c1nnc(NC(=O)c2ccc(OS(=O)(=O)F)cc2O)s1 [Sk056-50-4],–,–,290,–
CCC(CC)c1nnc(NC(=O)c2cc(OS(=O)(=O)F)ccc2[N+](=O)[O-])s1 [Sk054-144],–,–,65,–

# Same assay, conditions: FRET-based assay, [Lsp] = 100 nM, mean (± SD); read-out: IC50
row,Compound,IC50 [µM]
1,"CCC(CC)c1nnc(NC(=O)c2cc(OC)c(OC(C)C)cc2[N+](=O)[O-])s1 [1i, 4-isopropoxy-5-methoxy-2-nitro-N-(5-(pentan-3-yl)-1,3,4-thiadiazol-2-yl)benzamide]",0.21
2,"CCCCCCOc1cc([N+](=O)[O-])c(C(=O)Nc2nnc(C(CC)CC)s2)cc1OC [1h, 4-(hexyloxy)-5-methoxy-2-nitro-N-(5-(pentan-3-yl)-1,3,4-thiadiazol-2-y)benzamide]",0.11

# Same assay, conditions: FRET-based assay, [Lsp] = 400 nM, mean (± SD); read-out: IC50
row,Compound,IC50 [µM]
1,CCCCc1nnc(NC(=O)c2cc(OC)c(OC)cc2[N+](=O)[O-])s1 [1d],29
2,"CCOc1cc([N+](=O)[O-])c(C(=O)Nc2nnc(C(CC)CC)s2)cc1OC [1f, 4-ethoxy-5-methoxy-2-nitro-N-(5-(pentan-3-yl)-1,3,4-thiadiazol-2-yl)benzamide]",1.2
3,"N-(5-buty-1,3,4-oxadiazol-2-yl)-4,5-dimethoxy-2-nitrobenzamide [1e]",> 400
4,CCC(CC)c1nnc(NC(=O)c2ccc(OC)c(OC)c2)s1 [1b],110
5,"CCC(CC)c1nnc(NC(=O)c2cc(OC)c(OC)cc2[N+](=O)[O-])s1 [1a, 4,5-dimethoxy-2-nitro-N-(5-(pentan-3-yl)-1,3,4-thiadiazol-2-yl)benzamide]",4.2

# Same assay, conditions: Table 2, variation of R3; read-out: IC50
row,Compound,IC50 [µM]
1,CCCCc1nnc(NC(=O)c2cc(OC)c(OC)cc2[N+](=O)[O-])s1 [1d],29 ± 0.6
2,CCOC(=O)Cc1nnc(NC(=O)c2cc(OC)c(OC)cc2[N+](=O)[O-])s1 [Sk052-27-2],78
3,COC(=O)CCc1nnc(NC(=O)c2cc(OC)c(OC)cc2[N+](=O)[O-])s1 [Sk052-147-3],> 200
4,COc1cc(C(=O)Nc2nnc(C(C)(C)C)s2)c([N+](=O)[O-])cc1OC [Sk061-69-3],36
5,COc1cc(C(=O)Nc2nnc(C3CCCCC3)s2)c([N+](=O)[O-])cc1OC [Sk052-56],> 400
6,COc1cc(C(=O)Nc2nnc(C(C)C)s2)c([N+](=O)[O-])cc1OC [Sk061-69-1],44
7,CCCCCc1nnc(NC(=O)c2cc(OC)c(OC)cc2[N+](=O)[O-])s1 [Sk052-147-2],26
8,COc1cc(C(=O)Nc2nnc(C3CC3)s2)c([N+](=O)[O-])cc1OC [Sk052-147-1],208
9,CCCC(CCC)c1nnc(NC(=O)c2cc(OC)c(OC)cc2[N+](=O)[O-])s1 [Sk052-88-1],1.1
10,CCCc1nnc(NC(=O)c2cc(OC)c(OC)cc2[N+](=O)[O-])s1 [Sk054-141-2],26
11,COc1cc(C(=O)Nc2nnc(CCc3ccccc3)s2)c([N+](=O)[O-])cc1OC [Sk052-88-2],20
12,CCCCC(CC)c1nnc(NC(=O)c2cc(OC)c(OC)cc2[N+](=O)[O-])s1 (centres unmarked) [Sk061-69-4],2.5
13,"CCC(CC)c1nnc(NC(=O)c2cc(OC)c(OC)cc2[N+](=O)[O-])s1 [1a, 4,5-dimethoxy-2-nitro-N-(5-(pentan-3-yl)-1,3,4-thiadiazol-2-yl)benzamide]",4.2 ± 1

# Same assay, conditions: Table 3; read-out: IC50
row,Compound,IC50 [µM]
1,COc1cc(C(=O)Nc2ccc(C(C)C)cn2)c([N+](=O)[O-])cc1OC [Sk056-82-3],> 400
2,COc1cc(C(=O)Nc2nnc(C(C)C)s2)c([N+](=O)[O-])cc1OC [Sk061-69-1],44
3,COc1cc(C(=O)Nc2ccc(C(C)C)nc2)c([N+](=O)[O-])cc1OC [Sk056-82-4],> 400

# Same assay, conditions: Table 4; read-out: IC50
row,Compound,IC50 [µM]
1,CCC(CC)c1nnc(NC(=O)c2ccc(NC(C)=O)cc2[N+](=O)[O-])s1 [Sk054-112-2],160
2,CCC(CC)c1nnc(NC(=O)c2ccccc2C(=O)OC)s1 [Sk056-13-2],12
3,CCC(CC)c1nnc(NC(=O)c2c(Cl)cccc2[N+](=O)[O-])s1 [Sk056-82-2],260
4,CCC(CC)c1nnc(NC(=O)c2ccccc2CC(=O)OC)s1 [Sk056-82-1],21
5,CCC(CC)c1nnc(NC(=O)c2ccc(C(F)(F)F)cc2[N+](=O)[O-])s1 [Z123635394],9.3
6,CCC(CC)c1nnc(NC(=O)c2cc(OS(=O)(=O)On3nnc4ncccc43)ccc2[N+](=O)[O-])s1 [Sk054-141-1],120
7,CCC(CC)c1nnc(NC(=O)c2cc(OC)ccc2[N+](=O)[O-])s1 [Sk052-146-1],3.6
8,CCC(CC)c1nnc(NC(=O)c2ccccc2[N+](=O)[O-])s1 [Sk054-91-1],11 ± 3
9,CCC(CC)c1nnc(NC(=O)c2ccccc2C(=O)O)s1 [Sk056-24],270
10,CCC(CC)c1nnc(NC(=O)c2ccc(OC)cc2N)s1 [Sk054-142],11
11,CCC(CC)c1nnc(NC(=O)c2ccc(OC)cn2)s1 [Sk054-91-2],> 400
12,CCC(CC)c1nnc(NC(=O)c2ccc(OC)cc2[N+](=O)[O-])s1 [Sk052-146-2],2.2

# Same assay, conditions: Table 5, E = 100 nM; read-out: IC50
row,Compound,IC50 [µM]
1,CCC(CC)c1nnc(NC(=O)c2cc(Cl)c(OCCCCCCN)cc2[N+](=O)[O-])s1 [Sk061-45],> 4
2,CCC(CC)c1nnc(NC(=O)c2cc(Cl)c(Oc3ccc(O)cc3)cc2[N+](=O)[O-])s1 [Sk061-30-1],> 4
3,CCC(CC)c1nnc(NC(=O)c2cc(Cl)c(OCCCCCCNC(=O)OC(C)(C)C)cc2[N+](=O)[O-])s1 [Sk061-54],~2.3
4,CCC(CC)c1nnc(NC(=O)c2cc(Cl)c(OC3CCC(F)(F)CC3)cc2[N+](=O)[O-])s1 [Sk061-31-2],0.58
5,CCC(CC)c1nnc(NC(=O)c2cc(Cl)c(OC3CCC(C)(C)CC3)cc2[N+](=O)[O-])s1 [Sk061-31-1],0.23
6,CCC(CC)c1nnc(NC(=O)c2cc(Cl)c(Oc3ccc(NC(=O)OC(C)(C)C)cc3)cc2[N+](=O)[O-])s1 [Sk061-29],0.64

# Same assay, conditions: Table 5, [Lsp] = 20 nM; read-out: IC50
row,Compound,IC50 [µM]
1,CCC(CC)c1nnc(NC(=O)c2cc(Cl)c(SC3CCCC3)cc2[N+](=O)[O-])s1 [Sk056-22-1],0.02
2,CCC(CC)c1nnc(NC(=O)c2cc(Cl)c(OC3CCCCC3)cc2[N+](=O)[O-])s1 [Sk056-29],0.068
3,CCC(CC)c1nnc(NC(=O)c2cc(OC)c(OC3CCCC3)cc2[N+](=O)[O-])s1 [Sk052-145-2],0.073
4,CCC(CC)c1nnc(NC(=O)c2cc(Cl)c(OC3CCCC3)cc2[N+](=O)[O-])s1 [Sk054-116-2],0.11 ± 0.012
5,CCC(CC)c1nnc(NC(=O)c2ccc(OC3CCCC3)cc2[N+](=O)[O-])s1 [Sk054-116-1],0.4
6,CCC(CC)c1nnc(NC(=O)c2cc(Cl)c(Oc3ccccc3)cc2[N+](=O)[O-])s1 [Sk056-22-2],0.19
7,CCC(CC)c1nnc(NC(=O)c2cc(OC)c(OCc3ccccc3)cc2[N+](=O)[O-])s1 [Sk054-82-3],2.9
8,CCC(CC)c1nnc(NC(=O)c2cc(Cl)c(NC3CCCC3)cc2[N+](=O)[O-])s1 [Sk056-16-1],0.17

# Same assay, conditions: Table 6; read-out: IC50
row,Compound,IC50 [µM]
1,CCC(CC)c1nnc(NC(=O)c2cc(Cl)c(OC3CCCC3)cc2[N+](=O)[O-])s1 [Sk054-116-2],0.11 ± 0.012
2,COC(=O)CCSCCCCCc1nnc(NC(=O)c2cc(Cl)c(OC3CCCC3)cc2[N+](=O)[O-])s1 [Sk056-26],3.2
3,O=C(O)CCSCCCCCc1nnc(NC(=O)c2cc(Cl)c(OC3CCCC3)cc2[N+](=O)[O-])s1 [Sk056-27],11
4,O=C(Nc1nnc(CCCCCCl)s1)c1cc(Cl)c(OC2CCCC2)cc1[N+](=O)[O-] [Sk056-15],3.8

# Same assay, conditions: Table 7, linker variation, E = 100 nM; read-out: IC50
row,Compound,IC50 [µM]
1,CCC(CC)c1nnc(NC(=O)c2cc(Cl)c(OCCCNC(=O)OC(C)(C)C)cc2[N+](=O)[O-])s1 [Sk061-80-1],1.7
2,CCC(CC)c1nnc(NC(=O)c2cc(Cl)c(OCCCCNC(=O)OC(C)(C)C)cc2[N+](=O)[O-])s1 [Sk061-80-2],1.6
3,CCC(CC)c1nnc(NC(=O)c2cc(Cl)c(OC3CCCN(C(=O)OC(C)(C)C)C3)cc2[N+](=O)[O-])s1 (centres unmarked) [Sk061-80-5],0.83
4,CCC(CC)c1nnc(NC(=O)c2cc(Cl)c(OCCCCCCNC(=O)OC(C)(C)C)cc2[N+](=O)[O-])s1 [Sk061-54],2.3
5,CCC(CC)c1nnc(NC(=O)c2cc(Cl)c(OCCNC(=O)OC(C)(C)C)cc2[N+](=O)[O-])s1 [Sk061-68],0.21
6,CCC(CC)c1nnc(NC(=O)c2cc(Cl)c(OC3CCN(C(=O)OC(C)(C)C)CC3)cc2[N+](=O)[O-])s1 [Sk061-80-4],1.1
7,CCC(CC)c1nnc(NC(=O)c2cc(Cl)c(Oc3ccc(NC(=O)OC(C)(C)C)cc3)cc2[N+](=O)[O-])s1 [Sk061-29],0.64

# Same assay, conditions: [S]=50 μM, [Lsp]=100 nM
row,Compound,Hill constant
1,"CCC(CC)c1nnc(NC(=O)c2cc(OC)c(OC(C)C)cc2[N+](=O)[O-])s1 [1i, 4-isopropoxy-5-methoxy-2-nitro-N-(5-(pentan-3-yl)-1,3,4-thiadiazol-2-yl)benzamide]",approximately 1

# Same assay, conditions: biochemical analysis
row,Compound,manner of Lsp inhibition
1,"CCC(CC)c1nnc(NC(=O)c2cc(OC)c(OC)cc2[N+](=O)[O-])s1 [1a, 4,5-dimethoxy-2-nitro-N-(5-(pentan-3-yl)-1,3,4-thiadiazol-2-yl)benzamide]",non-competitive
